Measured values reported in ChEMBL document CHEMBL1138566, “Synthesis of novel benzo[h]quinolines: wound healing, antibacterial, DNA binding and in vitro antioxidant activity” (Eur J Med Chem, 2009).
In brackets after ≈: the same amount, converted by molar mass. Activity calls are given as the source filed them. The rule behind the calls is not given here.

Assays:
Klebsiella pneumoniae [1] = test: microbe, parasite or virus in culture; conditions: MTCC 618, 48 h, read-out: DIZ
Description: Antibacterial activity against Klebsiella pneumoniae MTCC 618 at 10 ug/ml after 48 hrs by agar well diffusion method

Streptococcus pyogenes [2] = test: microbe, parasite or virus in culture; conditions: NCIM 2608, 48 h, read-out: DIZ
Description: Antibacterial activity against Streptococcus pyogenes NCIM 2608 at 10 ug/ml after 48 hrs by agar well diffusion method

Streptococcus pyogenes [3] = test: Antibacterial activity against Streptococcus pyogenes NCIM 2608 after 48 hrs by microdilution method; type: functional; conditions: NCIM 2608, 48 h
Escherichia coli [4] = test: Antibacterial activity against Escherichia coli after 48 hrs by microdilution method; type: functional
Staphylococcus aureus [5] = test: Antibacterial activity against Staphylococcus aureus ATCC 29737 after 48 hrs by microdilution method; type: functional; conditions: ATCC 29737, 48 h
Klebsiella pneumoniae [6] = test: Antibacterial activity against Klebsiella pneumoniae MTCC 618 after 48 hrs by microdilution method; type: functional; conditions: MTCC 618, 48 h
Pseudomonas aeruginosa [7] = test: microbe, parasite or virus in culture; conditions: ATCC 20852, 48 h, read-out: DIZ
Description: Antibacterial activity against Pseudomonas aeruginosa ATCC 20852 at 10 ug/ml after 48 hrs by agar well diffusion method

Staphylococcus aureus [8] = test: microbe, parasite or virus in culture; conditions: ATCC 29737, 48 h, read-out: DIZ
Description: Antibacterial activity against Staphylococcus aureus ATCC 29737 at 10 ug/ml after 48 hrs by agar well diffusion method

Escherichia coli [9] = test: Antibacterial activity against Escherichia coli at 10 ug/ml after 48 hrs by agar well diffusion method; conditions: read-out: DIZ
Bacillus subtilis [10] = test: microbe, parasite or virus in culture; conditions: NCIM 2010, 48 h, read-out: DIZ
Description: Antibacterial activity against Bacillus subtilis NCIM 2010 at 10 ug/ml after 48 hrs by agar well diffusion method

Bacillus subtilis [11] = test: Antibacterial activity against Bacillus subtilis NCIM 2010 by microdilution method; type: functional
[12] = test system: Radical scavenging activity; test: Antioxidant activity assessed as DPPH radical scavenging activity; type: functional
Rattus norvegicus [13] = test: Wound healing activity in Wistar albino rat dorsal back excision wound model assessed as wound closure applied topically as cream base ointment over 100/500 mm'2 scar measured after 8 days; type: functional
Calf thymus DNA [14] = test: Binding affinity to calf thymus DNA assessed as melting temperature; type: nucleic-acid assay; conditions: Bos taurus
Rattus norvegicus [15] = test: Wound healing activity in Wistar albino rat dorsal back excision wound model assessed as wound closure applied topically as cream base ointment over 100/500 mm'2 scar measured after 16 days; type: functional
Rattus norvegicus [16] = test: Wound healing activity in Wistar albino rat dorsal back excision wound model assessed as wound closure applied topically as cream base ointment over 100/500 mm'2 scar measured after 4 days; type: functional
Rattus norvegicus [17] = test: Wound healing activity in Wistar albino rat dorsal back excision wound model assessed as wound closure applied topically as cream base ointment over 100/500 mm'2 scar measured after 12 days; type: functional
[18] = Antioxidant activity assessed as hydrogen peroxide scavenging activity at 60 ug/ml by spectrophotometry; type: functional
Pseudomonas aeruginosa [19] = test: Antibacterial activity against Pseudomonas aeruginosa ATCC 20852 after 48 hrs by microdilution method; type: functional; conditions: ATCC 20852, 48 h
Escherichia coli [20] = test: Antibacterial activity against Escherichia coli at 10 mg/ml after 48 hrs by agar well diffusion method; type: functional; conditions: read-out: DIZ
Rattus norvegicus [21] = test: Wound healing activity in Wistar albino rat dorsal back incision wound model assessed as tensile strength applied topically as cream base ointment over 100/500 mm'2 scar by tensiometry; type: functional
[22] = Antioxidant activity assessed as increase in reducing power at 20 to 60 ug/mL; type: functional
Pseudomonas aeruginosa [23] = test: Antibacterial activity against Pseudomonas aeruginosa ATCC 20852 at 10 mg/ml after 48 hrs by agar well diffusion method; type: functional; conditions: ATCC 20852, 48 h, read-out: DIZ
Bacillus subtilis [24] = test: Antibacterial activity against Bacillus subtilis NCIM 2010 at 10 mg/ml after 48 hrs by agar well diffusion method; type: functional; conditions: NCIM 2010, 48 h, read-out: DIZ
Streptococcus pyogenes [25] = test: Antibacterial activity against Streptococcus pyogenes NCIM 2608 at 10 mg/ml after 48 hrs by agar well diffusion method; type: functional; conditions: NCIM 2608, 48 h, read-out: DIZ
Nucleic Acid [26] = test: Intrinsic binding affinity to DNA assessed as hypochromism by absorption spectral analysis; type: nucleic-acid assay
Rattus norvegicus [27] = test: Wound healing activity in Wistar albino rat dorsal back excision wound model assessed as epithelization period applied topically as cream base ointment over 100/500mm'2 scar; type: functional
Klebsiella pneumoniae [28] = test: Antibacterial activity against Klebsiella pneumoniae MTCC 618 at 10 mg/ml after 48 hrs by agar well diffusion method; type: functional; conditions: MTCC 618, 48 h, read-out: DIZ
[29] = Antioxidant activity assessed as inhibition of phenazine methosulphate-NADH coupling reaction-induced superoxide anion production at 60 ug/ml; type: functional; parameters: scale not given: the % may be the effect or the level left
[30] = Antioxidant activity assessed as hydrogen peroxide scavenging activity by spectrophotometry; type: functional
Nucleic Acid [31] = test: Intrinsic binding affinity to DNA by absorption spectral analysis; type: nucleic-acid assay
Nucleic Acid [32] = test: Binding affinity to DNA assessed as reduction of Uv-vis spectra absorption at 312 nm wavelength at 0.5 uM by DNA intercalation assay; type: nucleic-acid assay; parameters: scale not given: the % may be the effect or the level left
Staphylococcus aureus [33] = test: Antibacterial activity against Staphylococcus aureus ATCC 29737 at 10 mg/ml after 48 hrs by agar well diffusion method; type: functional; conditions: ATCC 29737, 48 h, read-out: DIZ
Calf thymus DNA [34] = test: Binding affinity to calf thymus DNA assessed as increase in viscosity at 100 uM; type: nucleic-acid assay; conditions: Bos taurus
Rattus norvegicus [35] = test: Wound healing activity in Wistar albino rat dorsal back excision wound model applied topically as 1 %W/W gel base ointment measured after 18 days; type: functional
Nucleic Acid [36] = test: Binding affinity to DNA assessed as reduction of Uv-vis spectra absorption at 293 nm wavelength at 0.5 uM by DNA intercalation assay; type: nucleic-acid assay; parameters: scale not given: the % may be the effect or the level left
Rattus norvegicus [37] = test: Wound healing activity in Wistar albino rat dorsal back excision wound model applied topically as cream base ointment over 100/500 mm'2 scar measured after 18 days; type: functional
Rattus norvegicus [38] = test: Wound healing activity in Wistar albino rat dorsal back excision wound model assessed as wound closure applied topically as 1 %W/W gel base ointment measured after 12 days; type: functional, organism-based
Rattus norvegicus [39] = test: Wound healing activity in Wistar albino rat dorsal back excision wound model assessed as wound closure applied topically as 1 %W/W gel base ointment measured after 16 days; type: functional
Rattus norvegicus [40] = test: Wound healing activity in Wistar albino rat dorsal back excision wound model assessed as wound closure applied topically as 1 %W/W gel base ointment measured after 4 days; type: functional
Rattus norvegicus [41] = test: Wound healing activity in Wistar albino rat dorsal back excision wound model assessed as wound closure applied topically as 1 %W/W gel base ointment measured after 8 days; type: functional

Row | SMILES | MIC (Streptococcus pyogenes [3]) | MIC (Escherichia coli [4]) | MIC (Staphylococcus aureus [5]) | MIC (Klebsiella pneumoniae [6]) | MIC (Bacillus subtilis [11]) | Activity [12] | Activity (Rattus norvegicus [13]) | Tm (Calf thymus DNA [14]) | Activity (Rattus norvegicus [15]) | Activity (Rattus norvegicus [16]) | Activity (Rattus norvegicus [17]) | Activity [18] | MIC (Pseudomonas aeruginosa [19]) | zone of inhibition at 10000 µg/mL (Escherichia coli [20]) | Activity (Rattus norvegicus [21]) | Activity [22] | zone of inhibition at 10000 µg/mL (Pseudomonas aeruginosa [23]) | zone of inhibition at 10000 µg/mL (Bacillus subtilis [24]) | Activity (Rattus norvegicus [27]) | Activity [29] | other results
1 | O=C(O)c1cn(C2CC2)c2cc(N3CCNCC3)c(F)cc2c1=O [CIPROFLOXACIN] | 6.25 µg/mL (≈ 18.9 µM) | 6.5 µg/mL (≈ 19.6 µM) | 6.75 µg/mL (≈ 20.4 µM) | 12.5 µg/mL (≈ 37.7 µM) | 12.5 µg/mL (≈ 37.7 µM) |  |  |  |  |  |  |  |  |  |  |  |  |  |  |  | zone of inhibition at 10 µg/mL (Klebsiella pneumoniae [1]): 20.1 mm; zone of inhibition at 10 µg/mL (Streptococcus pyogenes [2]): 20.8 mm; zone of inhibition at 10 µg/mL (Pseudomonas aeruginosa [7]): 23.3 mm; zone of inhibition at 10 µg/mL (Staphylococcus aureus [8]): 21.4 mm; zone of inhibition at 10 µg/mL (Escherichia coli [9]): 19.2 mm; zone of inhibition at 10 µg/mL (Bacillus subtilis [10]): 21.3 mm
2 | O=Cc1cc2ccc3ccccc3c2nc1[SeH] | 12.5 µg/mL (≈ 43.7 µM) | 25 µg/mL (≈ 87.4 µM) | 8 µg/mL (≈ 28 µM) | 25 µg/mL (≈ 87.4 µM) | 16.2 µg/mL (≈ 56.8 µM) | 61% | 85.26% | 58 °C | 100% | 53.65% | 95.7% | 74% | 16 µg/mL (≈ 55.9 µM) | 17.2 mm | 582.33 g | Active | 12.2 mm | 20.6 mm | 16 days | 76% | zone of inhibition at 10000 µg/mL (Streptococcus pyogenes [25]): 19.5 mm; Activity (Nucleic Acid [26]): 25.1%; zone of inhibition at 10000 µg/mL (Klebsiella pneumoniae [28]): 14.5 mm; Activity [30]: Dose-dependent effect; Kb (Nucleic Acid [31]): 3.8 ×10⁶ /M; Activity (Nucleic Acid [32]): 18.2%; zone of inhibition at 10000 µg/mL (Staphylococcus aureus [33]): 22.8 mm; Activity (Calf thymus DNA [34]): Active
3 | Cc1cc(C(C)(C)C)c(O)c(C(C)(C)C)c1 |  |  |  |  |  | 48% |  |  |  |  |  | Active |  |  |  |  |  |  |  | 51% | 
4 | COc1ccc(O)c(C(C)(C)C)c1.COc1ccc(O)cc1C(C)(C)C |  |  |  |  |  | 64% |  |  |  |  |  | Active |  |  |  |  |  |  |  | 81% | 
5 | O=Cc1cc2ccc3ccccc3c2nc1S | 12.5 µg/mL (≈ 52.2 µM) | 32 µg/mL (≈ 134 µM) | 11 µg/mL (≈ 46 µM) | 12.5 µg/mL (≈ 52.2 µM) | 16.2 µg/mL (≈ 67.9 µM) | 55% | 75.63% | 60 °C | 96.24% | 45.35% | 85.94% | 68% | 16 µg/mL (≈ 66.9 µM) | 12.3 mm | 544.83 g | Active | 11.6 mm | 15.2 mm | 18 days | 65% | Activity (Rattus norvegicus [35]): 95.71%; Activity (Nucleic Acid [36]): 20.3%; Activity (Rattus norvegicus [37]): 100%; zone of inhibition at 10000 µg/mL (Streptococcus pyogenes [25]): 17.4 mm; Activity (Nucleic Acid [26]): 20.5%; zone of inhibition at 10000 µg/mL (Klebsiella pneumoniae [28]): 13.6 mm; Activity [30]: Dose-dependent effect; Kb (Nucleic Acid [31]): 2.7 ×10⁵ /M; zone of inhibition at 10000 µg/mL (Staphylococcus aureus [33]): 19.4 mm; Activity (Calf thymus DNA [34]): Active
6 | NC(=O)N/N=C/c1ccc([N+](=O)[O-])o1 [NITROFURAZONE] |  |  |  |  |  |  |  |  |  |  |  |  |  |  | 599 g |  |  |  | 14 days |  | Activity (Rattus norvegicus [38]): 97.68%; Activity (Rattus norvegicus [39]): 100%; Activity (Rattus norvegicus [40]): 55.68%; Activity (Rattus norvegicus [41]): 87.21%
